In patent US20230203059A1, “MACROCYCLIC JAK INHIBITOR AND USES THEREOF” (Biopolar Hongye (Guangdong) Pharmaceutical Co. Ltd., priority 2020, published 2023):
Blank lines part the entries; values can stand above or below the compound they belong to.

How the values were obtained:
Type in all cases: biochemical
JAK1 = JAK1 (Homo sapiens, UniProt P23458); test: JAK kinase activity, homogeneous time-resolved fluorescence (JAK1 reaction system); settings: ATP 2 μM, JAK1 protein 0.2 ng/μL; read-out: JAK 1 activity
Description: (§1) The activity measurement method of JAK kinase was to use homogeneous time-resolved fluorescence technique. The reaction was performed in 384 shallow well plates with a total reaction volume of 10 μL. The mixture of kinase protein, compound, ATP and substrate was carried out in a reaction buffer of 50 mM Hepes (pH7.0), NaN3 0.02%, BSA 0.01%, 0.1 mM Orthocanadate, 5 mM MgCl2, and 1 mM DTT. After reacting for 1 hour, an antibody capable of recognizing substrate phosphorylation, dye XL-615 and detection buffer (Cisbio) containing EDTA were added to the system. The reaction signal of kinase was detected by PE company's porous plate detector. The parameter settings were excitation light at 320 nm, emission light at 615 nm and 665 nm. The activity of JAK is indirectly reflected by the signal ratio of 665 nm and 615 nm. In the reaction, the background well without enzyme and the total enzyme activity well without compound were set.
(§2) The IC50 value of the compound inhibiting protein was obtained by the formula: Y=100/(1+10^((Log IC50−X)*HillSlope)). In JAK1 reaction system, the concentration of ATP was 2 μM, and the concentration of JAK1 protein was 0.2 ng/μL.

JAK2 = JAK2 (Homo sapiens, UniProt O60674); test: JAK kinase activity, homogeneous time-resolved fluorescence (JAK2 reaction system); settings: ATP 2 μM, JAK2 protein 0.01 ng/μL
Description: as §1, §2
In JAK2 reaction system, the concentration of ATP was 2 μM, and the concentration of JAK2 protein was 0.01 ng/μL.

JAK3 = molecular target: T1, JAK3 (Homo sapiens, UniProt P52333); test: JAK kinase activity, homogeneous time-resolved fluorescence (JAK3 reaction system); settings: ATP 2 μM, JAK3 protein 0.04 ng/μL; read-out: JAK 3 activity
T1 sequence (P52333 1-1124): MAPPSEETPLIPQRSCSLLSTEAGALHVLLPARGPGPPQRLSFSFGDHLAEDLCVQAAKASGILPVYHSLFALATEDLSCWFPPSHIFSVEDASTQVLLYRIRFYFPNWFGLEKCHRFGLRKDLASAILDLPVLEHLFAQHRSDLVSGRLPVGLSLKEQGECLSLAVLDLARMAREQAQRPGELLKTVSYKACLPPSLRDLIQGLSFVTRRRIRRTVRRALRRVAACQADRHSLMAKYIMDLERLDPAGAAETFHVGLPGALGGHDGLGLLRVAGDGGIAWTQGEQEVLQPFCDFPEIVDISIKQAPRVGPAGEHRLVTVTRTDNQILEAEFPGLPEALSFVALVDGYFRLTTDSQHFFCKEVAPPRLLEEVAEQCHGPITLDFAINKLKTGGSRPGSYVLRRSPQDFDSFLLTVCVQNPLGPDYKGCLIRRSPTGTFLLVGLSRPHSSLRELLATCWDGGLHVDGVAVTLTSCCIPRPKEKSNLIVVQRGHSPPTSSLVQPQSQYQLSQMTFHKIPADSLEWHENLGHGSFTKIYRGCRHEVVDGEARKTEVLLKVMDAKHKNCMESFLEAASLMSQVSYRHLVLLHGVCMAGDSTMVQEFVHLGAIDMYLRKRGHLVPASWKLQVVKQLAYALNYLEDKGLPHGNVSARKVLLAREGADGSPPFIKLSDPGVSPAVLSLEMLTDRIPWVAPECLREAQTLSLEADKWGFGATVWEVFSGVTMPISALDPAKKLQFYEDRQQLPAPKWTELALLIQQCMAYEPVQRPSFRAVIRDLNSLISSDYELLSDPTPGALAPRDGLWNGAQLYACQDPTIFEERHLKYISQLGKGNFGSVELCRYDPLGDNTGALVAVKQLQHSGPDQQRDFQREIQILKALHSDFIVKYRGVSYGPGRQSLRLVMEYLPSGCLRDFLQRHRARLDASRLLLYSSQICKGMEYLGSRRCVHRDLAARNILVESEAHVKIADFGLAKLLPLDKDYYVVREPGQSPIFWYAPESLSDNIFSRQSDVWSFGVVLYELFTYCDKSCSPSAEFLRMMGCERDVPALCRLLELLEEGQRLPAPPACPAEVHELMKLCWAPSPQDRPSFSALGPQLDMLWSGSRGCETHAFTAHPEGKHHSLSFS
Description: as §1, with “The reaction was performed in 384 shallow well plates with a total reaction volume of 10 μL.” left out, “After reacting for 1 hour, an antibody capable of recognizing substrate phosphorylation, dye XL-615 and detection buffer (Cisbio) containing EDTA were added to the system.” left out, “set. […]” for “set.”
In JAK3 reaction system, the concentration of ATP was 2 μM, and the concentration of JAK3 protein was 0.04 ng/μL.

TYK2 = TYK2 (Homo sapiens, UniProt P29597); test: JAK kinase activity, homogeneous time-resolved fluorescence (TYK2 reaction system); settings: ATP 2 μM, TYK2 protein 0.2 ng/μL; read-out: TYK 2 activity
Description: as §1, §2
In TYK2 reaction system, the concentration of ATP was 2 μM, and the concentration of TYK2 protein was 0.2 ng/μL.

Chain of TYK2 (P29597 whole entry): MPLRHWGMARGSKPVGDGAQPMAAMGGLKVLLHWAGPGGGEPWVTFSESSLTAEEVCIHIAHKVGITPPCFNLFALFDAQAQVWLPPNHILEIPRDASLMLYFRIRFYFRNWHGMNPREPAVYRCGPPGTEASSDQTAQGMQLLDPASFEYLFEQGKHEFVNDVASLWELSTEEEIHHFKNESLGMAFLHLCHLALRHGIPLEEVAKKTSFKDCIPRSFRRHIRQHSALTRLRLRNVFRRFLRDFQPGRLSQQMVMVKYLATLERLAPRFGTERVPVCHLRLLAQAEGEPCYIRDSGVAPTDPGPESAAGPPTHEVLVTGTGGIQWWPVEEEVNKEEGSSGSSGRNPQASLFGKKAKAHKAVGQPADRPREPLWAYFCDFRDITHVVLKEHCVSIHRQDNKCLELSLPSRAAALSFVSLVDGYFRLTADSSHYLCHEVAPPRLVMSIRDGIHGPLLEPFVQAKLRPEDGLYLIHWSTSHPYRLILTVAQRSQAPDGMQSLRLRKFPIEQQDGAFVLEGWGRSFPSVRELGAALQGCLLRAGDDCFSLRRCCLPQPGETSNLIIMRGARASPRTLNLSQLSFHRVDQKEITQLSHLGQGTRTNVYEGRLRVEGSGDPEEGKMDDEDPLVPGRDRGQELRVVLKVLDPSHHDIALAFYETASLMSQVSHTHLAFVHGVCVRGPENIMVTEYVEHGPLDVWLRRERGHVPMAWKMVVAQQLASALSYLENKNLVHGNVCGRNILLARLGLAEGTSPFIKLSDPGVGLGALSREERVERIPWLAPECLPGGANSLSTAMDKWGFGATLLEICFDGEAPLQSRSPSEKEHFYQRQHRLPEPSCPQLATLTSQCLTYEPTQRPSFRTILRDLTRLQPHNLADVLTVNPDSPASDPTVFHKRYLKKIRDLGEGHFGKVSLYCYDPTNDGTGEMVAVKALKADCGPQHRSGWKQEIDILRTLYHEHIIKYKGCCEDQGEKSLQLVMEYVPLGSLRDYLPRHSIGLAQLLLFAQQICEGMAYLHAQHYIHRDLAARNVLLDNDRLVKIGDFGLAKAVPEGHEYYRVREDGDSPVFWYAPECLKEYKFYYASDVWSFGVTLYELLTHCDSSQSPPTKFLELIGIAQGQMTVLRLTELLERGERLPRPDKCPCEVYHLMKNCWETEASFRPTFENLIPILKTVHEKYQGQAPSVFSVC
Chain of JAK2 (O60674 whole entry): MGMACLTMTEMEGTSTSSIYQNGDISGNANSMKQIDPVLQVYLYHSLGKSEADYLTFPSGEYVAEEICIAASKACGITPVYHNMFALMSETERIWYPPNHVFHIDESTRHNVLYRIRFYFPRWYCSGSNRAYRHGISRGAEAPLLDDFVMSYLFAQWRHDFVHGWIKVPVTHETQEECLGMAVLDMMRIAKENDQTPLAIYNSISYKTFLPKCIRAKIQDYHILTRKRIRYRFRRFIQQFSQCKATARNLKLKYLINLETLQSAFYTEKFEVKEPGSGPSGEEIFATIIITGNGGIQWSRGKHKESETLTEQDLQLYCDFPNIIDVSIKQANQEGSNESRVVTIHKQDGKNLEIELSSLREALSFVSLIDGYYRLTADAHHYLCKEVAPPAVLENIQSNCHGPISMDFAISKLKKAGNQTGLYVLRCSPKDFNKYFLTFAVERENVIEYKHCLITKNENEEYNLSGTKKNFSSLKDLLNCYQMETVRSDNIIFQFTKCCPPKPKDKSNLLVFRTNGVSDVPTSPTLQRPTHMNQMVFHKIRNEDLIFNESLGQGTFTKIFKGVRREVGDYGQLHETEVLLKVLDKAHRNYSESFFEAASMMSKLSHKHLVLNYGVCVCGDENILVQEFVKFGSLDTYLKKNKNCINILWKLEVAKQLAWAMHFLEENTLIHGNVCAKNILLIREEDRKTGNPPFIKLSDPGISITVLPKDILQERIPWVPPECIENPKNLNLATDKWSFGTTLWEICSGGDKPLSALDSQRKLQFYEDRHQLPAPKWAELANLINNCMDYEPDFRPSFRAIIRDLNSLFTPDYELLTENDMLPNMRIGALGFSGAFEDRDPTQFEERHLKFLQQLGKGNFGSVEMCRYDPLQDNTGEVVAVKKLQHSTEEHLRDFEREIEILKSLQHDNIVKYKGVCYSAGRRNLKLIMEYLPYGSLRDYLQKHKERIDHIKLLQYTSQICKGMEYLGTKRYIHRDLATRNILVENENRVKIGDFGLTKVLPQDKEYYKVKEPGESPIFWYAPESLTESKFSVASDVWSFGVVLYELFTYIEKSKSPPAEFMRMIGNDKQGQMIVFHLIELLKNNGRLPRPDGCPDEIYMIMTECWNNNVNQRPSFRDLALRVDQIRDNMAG
Chain of JAK1 (P23458 whole entry): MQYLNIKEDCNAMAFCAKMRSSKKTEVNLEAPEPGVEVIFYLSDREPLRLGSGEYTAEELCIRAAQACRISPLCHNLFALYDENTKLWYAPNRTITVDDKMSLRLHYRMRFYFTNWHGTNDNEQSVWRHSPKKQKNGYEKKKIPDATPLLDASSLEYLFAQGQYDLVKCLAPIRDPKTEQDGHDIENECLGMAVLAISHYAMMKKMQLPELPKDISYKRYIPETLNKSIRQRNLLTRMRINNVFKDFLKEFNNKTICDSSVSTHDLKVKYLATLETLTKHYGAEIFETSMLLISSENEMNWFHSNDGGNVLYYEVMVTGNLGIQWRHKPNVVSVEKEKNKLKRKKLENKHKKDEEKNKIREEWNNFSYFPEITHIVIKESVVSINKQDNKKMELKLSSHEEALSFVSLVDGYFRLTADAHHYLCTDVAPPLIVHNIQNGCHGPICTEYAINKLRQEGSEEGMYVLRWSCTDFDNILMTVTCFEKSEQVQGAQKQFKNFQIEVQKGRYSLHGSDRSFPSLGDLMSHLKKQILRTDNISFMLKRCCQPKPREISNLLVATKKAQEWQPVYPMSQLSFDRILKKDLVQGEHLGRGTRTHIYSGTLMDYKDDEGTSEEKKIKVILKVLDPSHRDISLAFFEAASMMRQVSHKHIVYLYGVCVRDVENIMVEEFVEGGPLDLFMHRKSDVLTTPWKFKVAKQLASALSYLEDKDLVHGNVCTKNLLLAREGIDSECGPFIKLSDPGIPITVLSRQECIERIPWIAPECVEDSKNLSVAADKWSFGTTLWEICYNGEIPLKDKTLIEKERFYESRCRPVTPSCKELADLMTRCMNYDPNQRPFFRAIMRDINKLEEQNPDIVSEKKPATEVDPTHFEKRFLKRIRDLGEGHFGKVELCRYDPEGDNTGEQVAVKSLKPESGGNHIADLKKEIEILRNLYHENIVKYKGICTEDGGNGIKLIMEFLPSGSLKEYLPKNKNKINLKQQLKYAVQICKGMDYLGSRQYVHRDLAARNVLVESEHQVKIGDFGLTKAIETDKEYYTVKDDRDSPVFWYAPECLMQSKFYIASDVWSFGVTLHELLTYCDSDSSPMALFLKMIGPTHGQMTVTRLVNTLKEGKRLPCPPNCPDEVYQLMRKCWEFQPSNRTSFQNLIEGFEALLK

Compound: CC1CCNC(=O)c2ccc(c([N+](=O)[O-])c2)-c2ccnc(n2)Nc2ccc(OCC3CC3)c(c2)COC1 (centres unmarked) [Example 144, 4^4-(cyclopropylmethoxy)-8-methyl-1^2-nitro-6-oxa-3,11-diaza-2(4,2)-pyrimidina-1(1,4),4(1,3)-dibenzena-cyclododecaphan-12-one]
IC50 (JAK1): > 10 µM
IC50 (JAK2): > 10 µM
IC50 (JAK3): 1 to 10 µM
IC50 (TYK2): > 10 µM

Compound: Cc1cc2ccc1-c1nc(ncc1C)Nc1ccc(Cl)c(c1)COCCCCNC2=O [Example 35, 1^2,2^5-dimethyl-4^4-chloro-6-oxa-3,11-diaza-2(4,2)-pyrimidina-1(1,4),4(1,3)-dibenzenacyclododecaphan-12-one]
IC50 (JAK1): > 10 µM
IC50 (JAK2): > 10 µM
IC50 (JAK3): 1 to 10 µM
IC50 (TYK2): > 10 µM

Compound: Cc1ccc2cc1COCCCCNC(=O)c1ccc(c(C)c1)-c1nc(ncc1C)N2 [Example 37, 1^2,2^5,4^4-trimethyl-6-oxa-3,11-diaza-2(4,2)-pyrimidina-1(1,4),4(1,3)-di-benzenacyclododecaphan-12-one]
IC50 (JAK1): > 10 µM
IC50 (JAK2): > 10 µM
IC50 (JAK3): 1 to 10 µM
IC50 (TYK2): > 10 µM

Compound: 4^4-((1,3-dihydroisobenzofuran-4- yl)methoxy)-1^2-nitro-6-oxa-3,11-di- aza-2(4,2)-pyrimidina-1(1,4),4(1,3)- dibenzenacyclododecaphan-12- one [Example 159]
IC50 (JAK1): > 10 µM
IC50 (JAK2): > 10 µM
IC50 (JAK3): 1 to 10 µM
IC50 (TYK2): > 10 µM

Compound: O=C1NCCCOCc2cc(ccc2N2CCOCC2)Nc2nccc(n2)-c2ccc1cc2 [Example 13, 4^4-morpholin-6-oxa-3,11-diaza-2(4,2)-pyrimidina-1(1,4),4(1,3)-dibenzena-cycloundecaphan-11-one]
IC50 (JAK1): > 10 µM
IC50 (JAK2): > 10 µM
IC50 (JAK3): > 10 µM
IC50 (TYK2): > 10 µM

Compound: COc1cc(F)cc(F)c1COc1ccc2cc1COCC[C@@H](C)CNC(=O)c1ccc(c(N)c1)-c1ccnc(n1)N2 [Example 188, (R)-1^2-amino-4^4-((2,4-difluoro-6-methoxybenzyl)oxy)-9-methyl-6-o-xa-3,11-diaza-2(4,2)-pyrimidina-1(1,4),4(1,3)-dibenzenacyclo-dodecaphan-12-one]
IC50 (JAK1): 1 to 10 µM
IC50 (JAK2): 0.101 to 1 µM
IC50 (JAK3): 0.011 to 0.1 µM
IC50 (TYK2): 1 to 10 µM

Compound: O=C1NCCCCOCc2cc(ccc2OC2CCOCC2)Nc2nccc(n2)-c2ccc1cc2[N+](=O)[O-] [Example 61, 1^2-nitro-4^4-(2H-tetrahydropyran-4-oxo)-6-oxa-3,11-diaza-2(4,2)-pyrimi-dina-1(1,4),4(1,3)-dibenzenacyclo-dodecaphan-12-one]
IC50 (JAK1): 1 to 10 µM
IC50 (JAK2): 1 to 10 µM
IC50 (JAK3): 0.101 to 1 µM
IC50 (TYK2): > 10 µM

Compound: CC1CCNC(=O)c2ccc(c(N)c2)-c2ccnc(n2)Nc2ccc(OCC3CCCOC3)c(c2)COC1 (centres unmarked) [Example 140, 1^2-amino-8-methyl-4^4-((tetrahydro-2H-pyran-3-yl)methoxy)-6-oxa-3,11-diaza-2(4,2)-pyrimidina-1(1,4),4(1,3)-dibenzenacyclododecaphan-12-one]
IC50 (JAK1): 1 to 10 µM
IC50 (JAK2): 0.101 to 1 µM
IC50 (JAK3): < 0.01 µM
IC50 (TYK2): 1 to 10 µM

Compound: Nc1cc2ccc1-c1ccnc(n1)Nc1ccc(OCc3cccc4c3CCO4)c(c1)COCCCCNC2=O [Example 151, 1^2-amino-4^4-((2,3-dihydrobenzofu-ran-4-yl)methoxy)-6-oxa-3,11-dia-za-2(4,2)-pyrimidina-1(14),4(1,3)-dibenzenacyclododecaphan-12-one]
IC50 (JAK1): 1 to 10 µM
IC50 (JAK2): 0.101 to 1 µM
IC50 (JAK3): 0.011 to 0.1 µM
IC50 (TYK2): 1 to 10 µM

Results, then the compound that gave them:

IC50 (JAK1): 1 to 10 µM
IC50 (JAK2): 0.101 to 1 µM
IC50 (JAK3): 0.011 to 0.1 µM
IC50 (TYK2): 0.101 to 1 µM
Compound: Cc1cc2ccc1-c1ccnc(n1)Nc1ccc(N3CCCCC3)c(c1)COCCCCNC2=O [Example 42, 1^2-methyl-4^4-(piperidin-1-)-6-oxa-3,11-diaza-2(4,2)-pyrimidina-1(1,4),4(1,3)-dibenzenacyclododecaphan-12-one]

IC50 (JAK1): 1 to 10 µM
IC50 (JAK2): 1 to 10 µM
IC50 (JAK3): 0.011 to 0.1 µM
IC50 (TYK2): 1 to 10 µM
Compound: Nc1cc2ccc1-c1ccnc(n1)Nc1ccc(OCC3CCCCC3)c(c1)COCCCCNC2=O [Example 97, 1^2-amino-4^4-(cyclohexylmethoxy)-6-oxa-3,11-diaza-2(4,2)-pyrimidi-na-1(1,4),4(1,3)-dibenzenacyclodo-decaphan-12-one]

IC50 (JAK1): 1 to 10 µM
IC50 (JAK2): 0.101 to 1 µM
IC50 (JAK3): 0.011 to 0.1 µM
IC50 (TYK2): 1 to 10 µM
Compound: Nc1cc2ccc1-c1ccnc(n1)Nc1ccc(OCC(F)(F)F)c(c1)COCCCCNC2=O [Example 109, 1^2-amino-4^4-(2,2,2-trifluoroethoxy)-6-oxa-3,11-diaza-2(4,2)-pyrimidi-na-1(1,4),4(1,3)-dibenzenacyclo-dodecaphan-12-one]

IC50 (JAK1): 1 to 10 µM
IC50 (JAK2): 0.101 to 1 µM
IC50 (JAK3): 0.011 to 0.1 µM
IC50 (TYK2): 1 to 10 µM
Compound: CC(C)Oc1ccc2cc1COc1ccc(cc1)NC(=O)c1ccc(c(N)c1)-c1ccnc(n1)N2 [Example 198, 1^2-amino-4^4-isopropoxy-6-oxa-3,8-diaza-2(4,2)-pyrimidina-1,7(1,4),4(1,3)-tribenzenacyclononaphane-9-one]

IC50 (JAK1): 0.101 to 1 µM
IC50 (JAK2): 0.101 to 1 µM
IC50 (JAK3): 0.101 to 1 µM
IC50 (TYK2): 1 to 10 µM
Compound: Cc1ccc2cc1COCCCCNC(=O)c1ccc(c(F)c1)-c1ccnc(n1)N2 [Example 38, 1^2-fluoro-4^4-methyl-6-oxa-3,11-diaza-2(4,2)-pyrimidina-1(1,4),4(1,3)-di-benzenacyclododecaphan-12-one]

IC50 (JAK1): 1 to 10 µM
IC50 (JAK2): 0.101 to 1 µM
IC50 (JAK3): < 0.01 µM
IC50 (TYK2): 1 to 10 µM
Compound: Nc1cc2ccc1-c1ccnc(n1)Nc1ccc(Oc3cccnc3)c(c1)COCCCCNC2=O [Example 110, 1^2-amino-4^4-(pyridin-3-oxy)-6-oxa-3,11-diaza-2(4,2)-pyrimidina-1(1,4),4(1,3)-dibenzenacyclodo-decaphan-12-one]

IC50 (JAK1): 0.101 to 1 µM
IC50 (JAK2): 0.101 to 1 µM
IC50 (JAK3): 0.011 to 0.1 µM
IC50 (TYK2): 1 to 10 µM
Compound: O=C1NCCCCOCc2cc(ccc2N2CCCC2)Nc2nccc(n2)-c2ccc1cc2F [Example 34, 1^2-fluoro-4^4-(pyrrolidin-1-)-6-oxa-3,11-diaza-2(4,2)-pyrimidina-1(1,4),4(1,3)-dibenzenacyclododecaphan-12-one]

IC50 (JAK1): 0.101 to 1 µM
IC50 (JAK2): 0.101 to 1 µM
IC50 (JAK3): 0.101 to 1 µM
IC50 (TYK2): 1 to 10 µM
Compound: O=C1NCCCCOCc2cc(ccc2Cl)Nc2nccc(n2)-c2ccc1cc2[N+](=O)[O-] [Example 60, 1^2-nitro-4^4-chloro-6-oxa-3,11-diaza-2(4,2)-pyrimidina-1(1,4),4(1,3)-di-benzenacyclododecaphan-12-one]
